Reference: patent publication US20260356810A1, “NOVEL PIPERAZINE-BASED SULFONAMIDES AND THEIR USE AS NEUROPROTECTIVE AND/OR NEURORESTORATIVE AGENTS” (GENECODE, priority 2022, published 2026)

Target: T1, GFRα1-RET (Homo sapiens, UniProt P56159)
T1 construct: expressed in transfected cells; host or cells: MG87 murine fibroblast
Assay: Luciferase assay: activation of Elk1 signaling in reporter-gene cells expressing GFRα1-RET (MG87 murine fibroblast stably transfected with PathDetect Elk-1, GFRα1, and RET)
Assay type: cell-based
Conditions: Table 4; MG87 murine fibroblasts with PathDetect Elk-1, GFRα1, RET; 6 concentrations, duplicate, two times independently; agonist/activator activity; read-out: Luciferase Assay EC50
Method: The purpose of this experiment was to evaluate the GFRα1-RET activity of the compounds 001-060 according to the invention.
The compounds were tested for their activating activity of Elk1 signaling using the previously developed reporter-gene-based system in cells expressing GFRα1-RET (MG87 murine fibroblast stably transfected with PathDetect Elk-1, GFRα1, and RET) disclosed in Sidorova, Y. A. et al.: “Persephin signaling through GFRα1: The potential for the treatment of Parkinson's disease.” Molecular and Cellular Neuroscience, July 2010, Vol. 44, pp. 223-232. DOI: 10.1016/j.mcn.2010.03.009. For EC50 determination, a dose-response test was performed using 6 concentrations of each tested compound. Dose-response curves were fitted using the sigmoidal dose-response (variable slope) analysis in GraphPad Prism program (Graph Pad Inc) and EC50 of agonist/activator activity was calculated. Dose-response experiments were all performed in duplicate, two times independently.
The compounds were tested for their activating activity of Elk1 signaling using the same materials and methods than for the compounds according to the invention (Example 2 herein, section “Materials and methods”).

T1 sequence (P56159 25-429 limits assumed): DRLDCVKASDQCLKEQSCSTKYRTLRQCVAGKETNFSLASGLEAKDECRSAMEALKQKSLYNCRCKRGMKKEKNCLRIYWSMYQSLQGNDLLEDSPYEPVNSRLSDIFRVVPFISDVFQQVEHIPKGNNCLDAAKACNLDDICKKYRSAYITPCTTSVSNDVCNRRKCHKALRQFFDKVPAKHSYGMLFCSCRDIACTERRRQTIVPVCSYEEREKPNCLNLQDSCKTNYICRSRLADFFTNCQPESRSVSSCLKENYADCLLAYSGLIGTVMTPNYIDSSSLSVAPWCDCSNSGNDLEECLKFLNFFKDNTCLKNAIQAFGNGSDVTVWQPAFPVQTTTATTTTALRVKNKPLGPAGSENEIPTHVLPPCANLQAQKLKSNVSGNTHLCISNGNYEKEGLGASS
T1 sequence (P07949 29-1114 partner): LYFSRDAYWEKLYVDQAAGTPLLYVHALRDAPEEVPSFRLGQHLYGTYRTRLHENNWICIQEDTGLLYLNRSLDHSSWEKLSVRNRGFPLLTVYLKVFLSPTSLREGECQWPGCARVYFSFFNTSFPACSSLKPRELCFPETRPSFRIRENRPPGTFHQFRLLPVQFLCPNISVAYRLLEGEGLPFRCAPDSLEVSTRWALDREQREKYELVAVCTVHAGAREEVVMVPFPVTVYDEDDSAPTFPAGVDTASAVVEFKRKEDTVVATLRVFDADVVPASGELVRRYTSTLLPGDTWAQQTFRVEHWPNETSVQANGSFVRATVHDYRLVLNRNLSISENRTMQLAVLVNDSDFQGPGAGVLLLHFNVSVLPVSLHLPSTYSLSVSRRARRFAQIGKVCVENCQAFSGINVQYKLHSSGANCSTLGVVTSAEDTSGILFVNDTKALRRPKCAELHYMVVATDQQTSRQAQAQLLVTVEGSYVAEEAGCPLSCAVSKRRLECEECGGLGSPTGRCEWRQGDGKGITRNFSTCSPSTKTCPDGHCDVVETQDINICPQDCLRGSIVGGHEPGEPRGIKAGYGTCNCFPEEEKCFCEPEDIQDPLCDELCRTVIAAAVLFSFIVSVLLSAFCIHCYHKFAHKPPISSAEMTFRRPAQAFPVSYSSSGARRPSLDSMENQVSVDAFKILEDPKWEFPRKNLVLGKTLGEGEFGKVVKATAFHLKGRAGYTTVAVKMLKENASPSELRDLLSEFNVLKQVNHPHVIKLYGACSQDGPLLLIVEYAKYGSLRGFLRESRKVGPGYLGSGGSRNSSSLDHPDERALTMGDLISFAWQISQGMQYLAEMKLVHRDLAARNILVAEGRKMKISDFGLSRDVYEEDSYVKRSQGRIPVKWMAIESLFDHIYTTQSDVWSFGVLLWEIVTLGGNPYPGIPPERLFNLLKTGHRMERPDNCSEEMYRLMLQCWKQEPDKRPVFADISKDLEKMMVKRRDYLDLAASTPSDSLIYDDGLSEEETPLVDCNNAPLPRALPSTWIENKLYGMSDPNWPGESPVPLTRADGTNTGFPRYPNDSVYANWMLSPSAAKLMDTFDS

Compound	EC50
COc1ccc(S(=O)(=O)NC2C3CC4CC(C3)CC2C4)cc1N1CCN(C(=O)c2ccc(F)cc2Cl)CC1 (stereo not shown) [Compound 034, N-(2-adamantyl)-3-[4-(2-chloro-4-fluoro-benzoyl)piperazin-1-yl]-4-methoxy-benzenesulfonamide]	5 to 10 µM
CCN(CC)S(=O)(=O)c1cnc(Cl)c(N2CCN(C(=O)c3ccc(F)cc3C(F)(F)F)CC2)c1 [Compound 044, 6-chloro-N,N-diethyl-5-[4-[4-fluoro-2-(trifluoromethyl)benzoyl]piperazin-1-yl]pyridine-3-sulfonamide]	10 to 50 µM
COc1ccc(S(=O)(=O)N(C)Cc2ccccc2)cc1N1CCN(C(=O)c2ccc(F)cc2Cl)CC1 [Compound 019, N-benzyl-3-[4-(2-chloro-4-fluoro-benzoyl)piperazin-1-yl]-4-methoxy-N-methyl-benzenesulfonamide]	10 to 50 µM
COc1ccc(S(=O)(=O)NC2(C)CCCCC2)cc1N1CCN(C(=O)c2ccc(F)cc2Cl)CC1 [Compound 035, 3-[4-(2-chloro-4-fluoro-benzoyl)piperazin-1-yl]-4-methoxy-N-(1-methylcyclohexyl)benzenesulfonamide]	1 to 5 µM
CCN(CC)S(=O)(=O)c1cnc(OC)c(N2CCN(C(=O)c3ccc(F)cc3C(F)(F)F)CC2)c1 [Compound 045, N,N-diethyl-5-[4-[4-fluoro-2-(trifluoromethyl)benzoyl]piperazin-1-yl]-6-methoxy-pyridine-3-sulfonamide]	10 to 50 µM
CCCN(C)S(=O)(=O)c1ccc(OC)c(N2CCN(C(=O)c3ccc(F)cc3Cl)CC2)c1 [Compound 030, 3-[4-(2-chloro-4-fluoro-benzoyl)piperazin-1-yl]-4-methoxy-N-methyl-N-propyl-benzenesulfonamide]	1 to 5 µM
COc1ccc(S(=O)(=O)N2CCC(Cc3ccccc3)CC2)cc1N1CCN(C(=O)c2ccccc2C(F)F)CC1 [Compound 007, [4-[5-[(4-benzyl-1-piperidyl)sulfonyl]-2-methoxy-phenyl]piperazin-1-yl]-[2-(difluoromethyl)phenyl]methanone]	1 to 5 µM
COc1ccc(S(=O)(=O)N2CC3CN(C(=O)OC(C)(C)C)CC3C2)cc1N1CCN(C(=O)c2ccc(F)cc2Cl)CC1 (stereo not shown) [Compound 022, tert-butyl 5-[3-[4-(2-chloro-4-fluoro-benzoyl)piperazin-1-yl]-4-methoxy-phenyl]sulfonyl-1,3,3a,4,6,6a-hexahydropyrrolo[3,4-c]pyrrole-2-carboxylate]	10 to 50 µM
CCCN(C)S(=O)(=O)c1cc2c(c(N3CCN(C(=O)c4ccc(F)cc4C(F)(F)F)CC3)c1)OCC2 [Compound 043, 7-[4-[4-fluoro-2-(trifluoromethyl)benzoyl]piperazin-1-yl]-N-methyl-N-propyl-2,3-dihydrobenzofuran-5-sulfonamide]	1 to 5 µM
CCCN(C)S(=O)(=O)c1ccc(O)c(N2CCN(C(=O)c3ccc(F)cc3C(F)(F)F)CC2)c1 [Compound 048, 3-[4-[4-fluoro-2-(trifluoromethyl)benzoyl]piperazin-1-yl]-4-hydroxy-N-methyl-N-propyl-benzenesulfonamide]	5 to 10 µM
CCN(CC)S(=O)(=O)c1ccc(OC)c(N2CCN(C(=O)c3ccc(F)cc3Cl)CC2)c1 [Compound 001, 3-[4-(2-chloro-4-fluoro-benzoyl)piperazin-1-yl]-N,N-diethyl-4-methoxy-benzenesulfonamide]	5 to 10 µM
CCCN(C)S(=O)(=O)c1ccc(OCCO)c(N2CCN(C(=O)c3ccc(F)cc3C(F)(F)F)CC2)c1 [Compound 049, 3-[4-[4-fluoro-2-(trifluoromethyl)benzoyl]piperazin-1-yl]-4-(2-hydroxyethoxy)-N-methyl-N-propyl-benzenesulfonamide]	10 to 50 µM
CCCN(C)S(=O)(=O)c1ccc(F)c(N2CCN(C(=O)c3ccc(F)cc3C(F)(F)F)CC2)c1 [Compound 042, 4-fluoro-3-[4-[4-fluoro-2-(trifluoromethyl)benzoyl]piperazin-1-yl]-N-methyl-N-propyl-benzenesulfonamide]	1 to 5 µM

Now from value to compound:

EC50	Compound
1 to 5 µM	COc1ccc(S(=O)(=O)N2CCCC2)cc1N1CCN(C(=O)c2ccc(F)cc2Cl)CC1 [Compound 004, (2-chloro-4-fluoro-phenyl)-[4-(2-methoxy-5-pyrrolidin-1-ylsulfonyl-phenyl)piperazin-1-yl]methanone]
10 to 50 µM	COc1ccc(S(=O)(=O)N2CCCC2)cc1N1CCN(C(=O)c2ccc(Cl)cc2Cl)CC1 [Compound 003, (2,4-dichlorophenyl)-[4-(2-methoxy-5-pyrrolidin-1-ylsulfonyl-phenyl)piperazin-1-yl]methanone]
1 to 5 µM	COc1ccc(S(=O)(=O)N2CCC(OCc3ccccc3)C2)cc1N1CCN(C(=O)c2ccc(F)cc2Cl)CC1 (stereo not shown) [Compound 039, (2-chloro-4-fluoro-phenyl)-[4-[2-methoxy-5-[3-benzyloxypyrrolidin-1-yl]sulfonyl-phenyl]piperazin-1-yl]methanone]
1 to 5 µM	COc1ccc(S(=O)(=O)N2CCC(C(F)(F)F)CC2)cc1N1CCN(C(=O)c2ccc(F)cc2Cl)CC1 [Compound 031, (2-chloro-4-fluoro-phenyl)-[4-[2-methoxy-5-[[4-(trifluoromethyl)-1-piperidyl]sulfonyl]phenyl]piperazin-1-yl]methanone]
< 1 µM	COc1ccc(S(=O)(=O)N2CCC(c3ccc(F)cc3)CC2)cc1N1CCN(C(=O)c2ccc(F)cc2Cl)CC1 [Compound 050, (2-chloro-4-fluoro-phenyl)-[4-[5-[[4-(4-fluorophenyl)-1-piperidyl]sulfonyl]-2-methoxy-phenyl]piperazin-1-yl]methanone]
< 1 µM	COc1ccc(S(=O)(=O)N2CCN(CC(C)c3ccc(F)cc3)CC2)cc1N1CCN(C(=O)c2ccc(F)cc2Cl)CC1 (racemic) [Compound 054, (2-chloro-4-fluoro-phenyl)-[4-[2-methoxy-5-[4-[rac-(2R)-2-(4-fluorophenyl)propyl]piperazin-1-yl]sulfonyl-phenyl]piperazin-1-yl]methanone]
1 to 5 µM	O=C(c1ccc(F)cc1Cl)N1CCN(c2cc(S(=O)(=O)N3CCC(F)CC3)cc(Cl)c2O)CC1 [Compound 057, (2-chloro-4-fluoro-phenyl)-[4-[3-chloro-5-[(4-fluoro-1-piperidyl)sulfonyl]-2-hydroxy-phenyl]piperazin-1-yl]methanone]
5 to 10 µM	COc1ccc(S(=O)(=O)N(C)CC2CCC2)cc1N1CCN(C(=O)c2ccc(F)cc2Cl)CC1 [Compound 014, 3-[4-(2-chloro-4-fluoro-benzoyl)piperazin-1-yl]-N-(cyclobutylmethyl)-4-methoxy-N-methyl-benzenesulfonamide]
1 to 5 µM	COc1ccc(S(=O)(=O)N(C)Cc2cccc(Cl)c2)cc1N1CCN(C(=O)c2ccc(F)cc2Cl)CC1 [Compound 020, 3-[4-(2-chloro-4-fluoro-benzoyl)piperazin-1-yl]-N-[(3-chlorophenyl)methyl]-4-methoxy-N-methyl-benzenesulfonamide]
1 to 5 µM	COc1ccc(S(=O)(=O)N2CCC(c3ccccc3)C2)cc1N1CCN(C(=O)c2ccc(F)cc2Cl)CC1 (stereo not shown) [Compound 028, (2-chloro-4-fluoro-phenyl)-[4-[2-methoxy-5-[3-phenylpyrrolidin-1-yl]sulfonyl-phenyl]piperazin-1-yl]methanone]
1 to 5 µM	COc1ccc(S(=O)(=O)N2CCC(Cc3ccccc3)CC2)cc1N1CCN(C(=O)c2ccc(F)cc2C(F)F)CC1 [Compound 010, [4-[5-[(4-benzyl-1-piperidyl)sulfonyl]-2-methoxy-phenyl]piperazin-1-yl]-[2-(difluoromethyl)-4-fluoro-phenyl]methanone]
10 to 50 µM	COc1ccc(S(=O)(=O)N2CC3CN(Cc4ccccc4)CC3C2)cc1N1CCN(C(=O)c2ccc(F)cc2Cl)CC1 (stereo not shown) [Compound 040, [4-[5-[[2-benzyl-1,3,3a,4,6,6a-hexahydropyrrolo[3,4-c]pyrrol-5-yl]sulfonyl]-2-methoxy-phenyl]piperazin-1-yl]-(2-chloro-4-fluoro-phenyl)methanone]
5 to 10 µM	COc1ccc(S(=O)(=O)N(C)C2CCCC2)cc1N1CCN(C(=O)c2ccc(F)cc2Cl)CC1 [Compound 016, 3-[4-(2-chloro-4-fluoro-benzoyl)piperazin-1-yl]-N-cyclopentyl-4-methoxy-N-methyl-benzenesulfonamide]
1 to 5 µM	COc1ccc(S(=O)(=O)N2CCCC(c3ccccc3)C2)cc1N1CCN(C(=O)c2ccc(F)cc2Cl)CC1 (stereo not shown) [Compound 026, (2-chloro-4-fluoro-phenyl)-[4-[2-methoxy-5-[[3-phenyl-1-piperidyl]sulfonyl]phenyl]piperazin-1-yl]methanone]
1 to 5 µM	COc1ccc(S(=O)(=O)N2CCCC2(C)C)cc1N1CCN(C(=O)c2ccc(F)cc2Cl)CC1 [Compound 060, (2-chloro-4-fluoro-phenyl)-[4-[5-(2,2-dimethylpyrrolidin-1-yl)sulfonyl-2-methoxy-phenyl]piperazin-1-yl]methanone]

Same assay, conditions: Table 6, comparison with comparative compounds; values for 001, 009, 010 reported from Table 4; MG87 GFRα1-RET cells; read-out: Luciferase Assay EC50

EC50	Compound
1 to 5 µM	COc1ccc(S(=O)(=O)N2CCC(Cc3ccccc3)CC2)cc1N1CCN(C(=O)c2ccc(F)cc2C(F)F)CC1 [Compound 010, [4-[5-[(4-benzyl-1-piperidyl)sulfonyl]-2-methoxy-phenyl]piperazin-1-yl]-[2-(difluoromethyl)-4-fluoro-phenyl]methanone]
5 to 10 µM	CCN(CC)S(=O)(=O)c1ccc(OC)c(N2CCN(C(=O)c3ccc(F)cc3Cl)CC2)c1 [Compound 001, 3-[4-(2-chloro-4-fluoro-benzoyl)piperazin-1-yl]-N,N-diethyl-4-methoxy-benzenesulfonamide]
> 50 µM	COc1ccc(S(=O)(=O)N2CCC(Cc3ccccc3)CC2)cc1N1CCN(C(=O)c2cc(F)ccc2C(F)(F)F)CC1 [Compound C01, (4-(5-((4-benzylpiperidin-1-yl)sulfonyl)-2-methoxyphenyl)piperazin-1-yl)(5-fluoro-2-(trifluoromethyl)phenyl)methanone, reference compound]

Same assay, conditions: text statement on Table 6 results, GFRα1-RET luciferase assay; read-out: EC50

EC50	Compound
< 10 µM	COc1ccc(S(=O)(=O)N2CCC(Cc3ccccc3)CC2)cc1N1CCN(C(=O)c2ccc(F)cc2C(F)F)CC1 [Compound 010, [4-[5-[(4-benzyl-1-piperidyl)sulfonyl]-2-methoxy-phenyl]piperazin-1-yl]-[2-(difluoromethyl)-4-fluoro-phenyl]methanone]
< 10 µM	CCN(CC)S(=O)(=O)c1ccc(OC)c(N2CCN(C(=O)c3ccc(F)cc3Cl)CC2)c1 [Compound 001, 3-[4-(2-chloro-4-fluoro-benzoyl)piperazin-1-yl]-N,N-diethyl-4-methoxy-benzenesulfonamide]
> 50 µM	COc1ccc(S(=O)(=O)N2CCC(Cc3ccccc3)CC2)cc1N1CCN(C(=O)c2cc(F)ccc2C(F)(F)F)CC1 [Compound C01, (4-(5-((4-benzylpiperidin-1-yl)sulfonyl)-2-methoxyphenyl)piperazin-1-yl)(5-fluoro-2-(trifluoromethyl)phenyl)methanone, reference compound]
